Measurements taken from ChEMBL document CHEMBL3217747, “Discovery and pharmacological characterization of a selective delta opiate receptor antagonist (CP-646,777)” (Medchemcomm, 2011).

Key:
[1] = target: T1, Delta-type opioid receptor (Homo sapiens, UniProt P41143); assay: Antagonist activity at delta opioid receptor (unknown origin) assessed as [35S]-GTPgammaS binding by liquid scintillation counting analysis; type: functional
[2] = target: T1, Delta-type opioid receptor; assay: Displacement of [3H]diprenorphine from human delta opioid receptor expressed in CHO cells by liquid scintillation counting analysis; type: cell-based
MDCK = assay: Efflux ratio of apparent permeability across […] in MDCK cells expressing human P-gp; type: ADME, cell-based, Canis lupus familiaris; details: dog
[3] = In vitro clearance in human liver microsomes; type: ADME; details: read-out: CLH
[4] = target: Kappa-type opioid receptor (Homo sapiens, UniProt P41145); assay: Displacement of [3H]diprenorphine from human kappa opioid receptor expressed in CHO cells by liquid scintillation counting analysis; type: cell-based
Mu-type opioid receptor = Mu-type opioid receptor (Homo sapiens, UniProt P35372); assay: Displacement of [3H]diprenorphine from human mu opioid receptor expressed in CHO cells by liquid scintillation counting analysis; type: cell-based
[5] = Ratio of plasma concentration in mouse over Ki for human delta opioid receptor; type: ADME, cell-free
Mus musculus = organism: Mus musculus; assay: Reversal of SNC-80 induced hypothermia in ICR mouse assessed as rectal temperature; type: functional
[6] = Plasma concentration in mouse at 32 mg/kg, sc after 4 hrs; type: ADME, organism-based; parameters: dose 32 mg/kg, route subcutaneous
Cerebrospinal fluid [7] = assay: Drug uptake in rat cerebrospinal fluid at 32 mg/kg, sc; type: ADME, organism-based; parameters: dose 32 mg/kg, route subcutaneous; details: in vivo, read-out: Drug uptake
Brain = assay: Ratio of drug uptake from wild type P-gp mouse brain to P-gp deficient mouse brain compound treated subcutaneously; type: ADME; details: sc
[8] = Ratio of ED50 for Reversal of SNC-80 induced hypothermia in ICR mouse over Ki for human delta opioid receptor
[9] = Fraction unbound in mouse at 32 mg/kg, sc after 4 hrs; type: ADME, organism-based; parameters: dose 32 mg/kg, route subcutaneous; details: in vivo
Cerebrospinal fluid [10] = assay: Drug uptake in rat cerebrospinal fluid at 10 mg/kg, sc; type: ADME, organism-based; parameters: dose 10 mg/kg, route subcutaneous; details: in vivo, read-out: Drug uptake

Mu-type opioid receptor, sequence (P35372 whole entry): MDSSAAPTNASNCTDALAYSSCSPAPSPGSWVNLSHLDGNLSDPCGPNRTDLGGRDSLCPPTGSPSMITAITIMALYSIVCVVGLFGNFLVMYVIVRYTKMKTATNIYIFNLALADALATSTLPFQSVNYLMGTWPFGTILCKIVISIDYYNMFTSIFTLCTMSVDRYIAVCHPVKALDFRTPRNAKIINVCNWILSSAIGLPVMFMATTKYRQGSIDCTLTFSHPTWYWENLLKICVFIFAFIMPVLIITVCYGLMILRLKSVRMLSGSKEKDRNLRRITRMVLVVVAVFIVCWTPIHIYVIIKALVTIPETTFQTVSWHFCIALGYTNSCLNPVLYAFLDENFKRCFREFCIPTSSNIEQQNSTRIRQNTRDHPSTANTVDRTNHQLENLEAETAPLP
T1 sequence (P41143 whole entry): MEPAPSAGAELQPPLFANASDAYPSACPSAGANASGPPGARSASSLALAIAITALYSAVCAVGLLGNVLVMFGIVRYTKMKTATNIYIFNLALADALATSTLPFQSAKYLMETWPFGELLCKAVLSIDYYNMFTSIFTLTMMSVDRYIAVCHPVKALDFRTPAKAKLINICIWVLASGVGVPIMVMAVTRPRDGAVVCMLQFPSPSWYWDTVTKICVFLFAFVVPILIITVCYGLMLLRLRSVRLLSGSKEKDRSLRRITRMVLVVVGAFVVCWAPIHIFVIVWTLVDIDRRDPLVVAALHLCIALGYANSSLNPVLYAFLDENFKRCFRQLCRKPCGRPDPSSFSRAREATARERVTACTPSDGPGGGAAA
Kappa-type opioid receptor, sequence (P41145 whole entry): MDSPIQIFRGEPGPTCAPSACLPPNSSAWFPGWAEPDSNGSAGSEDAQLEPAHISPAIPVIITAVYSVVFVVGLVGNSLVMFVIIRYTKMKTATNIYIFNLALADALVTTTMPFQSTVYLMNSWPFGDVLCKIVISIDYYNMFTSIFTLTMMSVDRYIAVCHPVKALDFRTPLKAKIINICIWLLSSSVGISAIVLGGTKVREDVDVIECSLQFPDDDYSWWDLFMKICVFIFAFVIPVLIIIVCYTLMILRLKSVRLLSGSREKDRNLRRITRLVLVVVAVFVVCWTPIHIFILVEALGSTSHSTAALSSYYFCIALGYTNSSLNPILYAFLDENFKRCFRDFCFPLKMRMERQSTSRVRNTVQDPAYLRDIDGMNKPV

Compound | IC50 [1] [nM] | Ki [2] [nM] | Ratio (MDCK) | CLint scaled [3] [mL/min/kg] | Ki [4] [nM] | Ki (Mu-type opioid receptor) [nM] | Ratio [5] | ED50 (Mus musculus) [mg/kg] | concentration at 4 h [6] [nM] | concentration (Cerebrospinal fluid [7]) [nM] | Ratio (Brain) | Ratio [8] | fraction unbound at 4 h [9] | concentration (Cerebrospinal fluid [10]) [nM]
CCCC(C)CN1CCC(c2cccc(O)c2)(c2ncc(C(=O)N(CC)CC)cn2)CC1 (stereo not drawn) | 21 | 6 | 13 | 40 | > 890 | > 890 | – | – | – | – | – | – | – | –
CCC[C@@H](C)CN1CCC(c2cccc(O)c2)(c2ncc(C(=O)N(CC)CC)cn2)CC1 | 35 | 2 | 13 | 48 | 142 | 830 | 100 | 3 | 7500 | 300 | 6.5 | 15 | 0.3 | 103
CCCC(C)CN1CCC(c2cccc(C(N)=O)c2)(c2ncc(C(=O)N(CC)CC)cn2)CC1 (stereo not drawn) | 35 | 2 | 13 | 13 | 65 | > 890 | – | – | – | – | – | – | – | –
CCCC(C)CN1CCC(c2ccc(C(=O)N(C)C)cc2)(c2cccc(O)c2)CC1 (stereo not drawn) | – | – | – | 80 | – | > 890 | – | – | – | – | – | – | – | –
